Test results as given in ChEMBL document CHEMBL3611972, “Leishmanicidal, antiproteolytic, and mutagenic evaluation of alkyltriazoles and alkylphosphocholines” (Eur J Med Chem, 2015).
pIC50: −log10 of the molar value.

Experiments:
Leishmania amazonensis [1] = assay: microbe, parasite or virus in culture; assay type: functional, organism-based; conditions: MHOM/BR/71973/M2269, 72 h
Description: Leishmanicidal activity against Leishmania amazonensis MHOM/BR/71973/M2269 promastigotes assessed as reduction in surviving parasites incubated for 72 hrs by Neubauer's chamber based cell counting method

Leishmania amazonensis [2] = assay: Leishmanicidal activity against Leishmania amazonensis MHOM/BR/71973/M2269 amastigotes infected in mouse peritoneal macrophages assessed as reduction in surviving parasites incubated for 72 hrs by Giemsa staining based optical light microscopy; assay type: functional, organism-based; conditions: MHOM/BR/71973/M2269, 72 h
[3] = Cytotoxicity against mouse peritoneal macrophages assessed as reduction in cell viability incubated for 72 hrs by MTT assay; assay type: cell-based, Peritoneal macrophage cell
[4] = Selectivity index, ratio of CC50 for mouse peritoneal macrophages to IC50 for Leishmania amazonensis MHOM/BR/71973/M2269 amastigotes infected in mouse peritoneal macrophages; assay type: functional
[5] = Inhibition of Leishmania mexicana cysteine protease r-CPB2.8 using Z-FR-AMC fluorogenic substrate by spectrofluorometry
Salmonella typhimurium [6] = assay: Mutagenicity in Salmonella typhimurium TA98 assessed as mutagenicity index at 10 ug/plate incubated for 90 mins at 37 degC in absence of liver S9 fractions by Ames test relative to control; assay type: toxicity, organism-based; conditions: salmonella enterica subsp. enterica serovar typhimurium, 1.5 h
Salmonella typhimurium [7] = assay: Mutagenicity in Salmonella typhimurium TA98 assessed as mutagenicity index at 10 ug/plate incubated for 90 mins at 37 degC in absence of liver S9 fractions by Ames test relative to untreated control; assay type: toxicity, organism-based; conditions: salmonella enterica subsp. enterica serovar typhimurium, 1.5 h
Salmonella typhimurium [8] = assay: Mutagenicity in Salmonella typhimurium TA102 assessed as mutagenicity index at 5 ug/plate incubated for 90 mins at 37 degC in presence of liver S9 fractions by Ames test relative to untreated control; assay type: toxicity, organism-based; conditions: salmonella enterica subsp. enterica serovar typhimurium, s9, 1.5 h
Salmonella typhimurium [9] = assay: Mutagenicity in Salmonella typhimurium TA102 assessed as number of revertants at 5 ug/plate incubated for 90 mins at 37 degC in presence of liver S9 fractions by Ames test relative to control; conditions: salmonella enterica subsp. enterica serovar typhimurium, s9, 1.5 h
Salmonella typhimurium [10] = assay: Mutagenicity in Salmonella typhimurium TA100 assessed as number of revertants at 5 ug/plate incubated for 90 mins at 37 degC in presence of liver S9 fractions by Ames test relative to untreated control; conditions: salmonella enterica subsp. enterica serovar typhimurium, s9, 1.5 h

Row | Structure (SMILES) | pIC50 (Leishmania amazonensis [1]) | pIC50 (Leishmania amazonensis [2]) | Ratio CC50/IC50 [4] | pIC50 [5] | also measured
1 | C[N+](C)(C)CCOP(=O)([O-])OCCCCCCCCCN=[N+]=[N-] | 3.87 |  |  |  | 
2 | C[N+](C)(C)CCOP(=O)([O-])OCCCCCCCCCCCCN=[N+]=[N-] | 4.59 | 5.42 | 33.76 | 5.08 | CC50 at 72 h [3]: 129 µM
3 | CS(=O)(=O)OCCCCCCCCCCCCn1cc(CCCOS(C)(=O)=O)nn1 | 5.40 | 4.15 | 2.14 | 5.34 | CC50 at 72 h [3]: 156 µM
4 | CC(=O)OCCCc1cn(CCCCCCCCCCCCOS(C)(=O)=O)nn1 | 4.52 | 4.25 |  | 5.99 | CC50 at 72 h [3]: 26.6 µM
5 | CS(=O)(=O)OCCCCCCCCCn1cc(CCCO)nn1 | 4.08 |  |  |  | 
6 | OCCCc1cn(CCCCCCCCCI)nn1 | 4.17 |  |  |  | 
7 | OCCCc1cn(CCCCCCCCCCCCI)nn1 | 4.72 | 4.63 | 2.79 | 5.91 | CC50 at 72 h [3]: 66.2 µM
8 | OCCCc1cn(CCCCCCCCCF)nn1 | 4.09 |  |  |  | 
9 | OCCCc1cn(CCCCCCCCCCCCF)nn1 | 4.43 | 4.82 | 9.83 | 5.65 | CC50 at 72 h [3]: 163 µM
10 | CCOC(=O)c1cn(CCCCCCCCCCCCOS(C)(=O)=O)nn1 | 4.12 |  |  |  | 
11 | CS(=O)(=O)OCCCCCCCCCCCCn1cc(CO)nn1 | 4.29 |  |  |  | 
12 | CS(=O)(=O)OCCCCCCn1cc(CCCO)nn1 | 3.64 |  |  |  | 
13 | CS(=O)(=O)OCCCCCCCCCCCCn1cc(CCC(=O)O)nn1 | 3.65 |  |  |  | 
14 | CCOC(=O)c1cn(CCCCCCOS(C)(=O)=O)nn1 | 3.66 |  |  |  | 
15 | CCOC(=O)c1cn(CCCCCCCCCI)nn1 | 4.32 |  |  |  | 
16 | CCOC(=O)c1cn(CCCCCCCCCCCCI)nn1 | 4.55 | 4.75 | 5.28 | 5.22 | CC50 at 72 h [3]: 93.4 µM
17 | Nc1ccc([N+](=O)[O-])cc1N |  |  |  |  | Activity_index (Salmonella typhimurium [6]): 1350; Activity_index (Salmonella typhimurium [7]): 1350
18 | Nc1ccc2cc3ccccc3cc2c1 [2-AMINOANTHRACENE] |  |  |  |  | Revertants (Salmonella typhimurium [8]): 2510 revertants/plate; Revertants (Salmonella typhimurium [9]): 2510 revertants/plate; Revertants (Salmonella typhimurium [10]): 1020 revertants/plate
19 | C[C@@H]1[C@H](O)[C@@H](C)/C=C/C=C/C=C/C=C/C=C/C=C/C=C/[C@H](O[C@@H]2O[C@H](C)[C@@H](O)[C@H](N)[C@@H]2O)C[C@@H]2O[C@](O)(C[C@@H](O)C[C@@H](O)[C@H](O)CC[C@@H](O)C[C@@H](O)CC(=O)O[C@H]1C)C[C@H](O)[C@H]2C(=O)O [AMPHOTERICIN B] | 5.33 | 5.21 | 4.44 |  | 
20 | CC(C)C[C@H](NC(=O)[C@H]1O[C@@H]1C(=O)O)C(=O)NCCCCN=C(N)N [E-64] |  |  |  | 6.90 | 
21 | N=C(N)c1ccc(OCCCCCOc2ccc(C(=N)N)cc2)cc1 [PENTAMIDINE] |  | 5.18 | 1.69 |  | 
